Measured values: ChEMBL document CHEMBL3407414, “Discovery of AZD3147: a potent, selective dual inhibitor of mTORC1 and mTORC2” (J Med Chem, 2015)

What was measured:
[1] = Lipophilicity, log D of the compound; type: physicochemical; conditions: octanol/water
[2] = system: human MDR1; experiment: Apparent permeability from basolateral to apical side of MDCK2 cells expressing human MDR1 at 10 uM; type: ADME, cell-based, Canis lupus familiaris, MDCK-II; conditions: dog, MDCK-MDR1
[3] = system: human MDR1; experiment: Apparent permeability from apical to basolateral side of MDCK2 cells expressing human MDR1 at 10 uM; type: ADME, cell-based, Canis lupus familiaris, MDCK-II; conditions: dog, MDCK-MDR1
[4] = Intrinsic clearance in human hepatocytes assessed per million cells; type: ADME, cell-based, Hepatocyte; conditions: read-out: CLH
[5] = Volume of distribution at steady state in CD-1 mouse; type: ADME, organism-based; conditions: in vivo, read-out: Vdss
[6] = Volume of distribution at steady state in Beagle dog; type: ADME, organism-based, Canis lupus familiaris; conditions: in vivo, read-out: Vdss
[7] = Half life in CD-1 mouse; type: ADME, organism-based; conditions: in vivo
[8] = Clearance in CD-1 mouse at 2.5 to 10 umol/kg, iv; type: ADME, organism-based; conditions: in vivo
[9] = Clearance in Beagle dog at 1 to 3 umol/kg, iv; type: ADME, organism-based, Canis lupus familiaris; conditions: in vivo
[10] = Oral bioavailability in CD-1 mouse at 5 to 20 umol/kg; type: ADME, organism-based; conditions: in vivo
[11] = Oral bioavailability in Beagle dog at 3 to 10 umol/kg; type: ADME, organism-based, Canis lupus familiaris; conditions: in vivo
[12] = Half life in Beagle dog; type: ADME, organism-based, Canis lupus familiaris; conditions: in vivo

logD [1]	Structure (SMILES)	further results
2.88	COc1ccc(NC(=O)Nc2ccc(-c3nc(CS(C)(=O)=O)cc(N4CCOC[C@@H]4C)n3)cc2)cc1	–
1.54	CNC(=O)Nc1ccc(-c2nc(CS(C)(=O)=O)cc(N3CCOC[C@@H]3C)n2)cc1	–
3.8	C[C@H]1COCCN1c1cc(CS(C)(=O)=O)nc(-c2ccc(NC(=O)Nc3ccc(F)cc3)cc2)n1	–
1.79	CNC(=O)Nc1ccc(-c2nc(CS(C)(=O)=O)cc(N3CCOC[C@@H]3C)n2)cc1OC	–
1	C[C@H]1COCCN1c1cc(CS(C)(=O)=O)nc(-c2ccc(NC(=O)NCCO)cc2)n1	–
2.8	COc1ccc(CNC(=O)Nc2ccc(-c3nc(CS(C)(=O)=O)cc(N4CCOC[C@@H]4C)n3)cc2)cc1	–
1.74	C[C@H]1COCCN1c1cc(CS(C)(=O)=O)nc(-c2ccc(NC(=S)NC3CC3)cc2)n1	–
2.62	C[C@H]1COCCN1c1cc(C(C)(C)S(C)(=O)=O)nc(-c2ccc(NC(=O)NC3CC3)cc2)n1	hepatocyte CLint [4]: 50 µL/min/1e6 cells
3.6	CNC(=O)Nc1ccc(-c2nc(CS(=O)(=O)C3CCCCC3)cc(N3CCOC[C@@H]3C)n2)cc1	–
2.1	CNC(=O)Nc1ccc(-c2nc(CS(=O)(=O)c3ccncc3)cc(N3CCOC[C@@H]3C)n2)cc1	–
1.85	C[C@H]1COCCN1c1cc(CS(C)(=O)=O)nc(-c2ccc(NC(=O)Nc3cnn(C)c3)cc2)n1	–
2.65	CNC(=O)Nc1ccc(-c2nc(CS(=O)(=O)c3ccccc3)cc(N3CCOC[C@@H]3C)n2)cc1	–
3.3	C[C@H]1COCCN1c1cc(CS(C)(=O)=O)nc(-c2ccc(NC(=O)Nc3ccccc3)cc2)n1	–
1.5	CNC(=O)Nc1ccc(-c2nc(CS(C)(=O)=O)cc(N3CCOC[C@@H]3C)n2)cc1C	–
1.93	CCNC(=O)Nc1ccc(-c2nc(CS(C)(=O)=O)cc(N3CCOC[C@@H]3C)n2)cc1	–
2.45	CC(C)NC(=O)Nc1ccc(-c2nc(CS(C)(=O)=O)cc(N3CCOC[C@@H]3C)n2)cc1	–
0.3	C[C@H]1COCCN1c1cc(CS(C)(=O)=O)nc(-c2ccc(NC(=O)NCCN(C)C)cc2)n1	–
2	CNC(=O)Nc1ccc(-c2nc(CS(=O)(=O)C3CC3)cc(N3CCOC[C@@H]3C)n2)cc1	–
1.9	C[C@H]1COCCN1c1cc(CS(C)(=O)=O)nc(-c2ccc(NC(=O)NC3CC3)cc2)n1	–
1.7	C[C@H]1COCCN1c1cc(CS(=O)(=O)CCCO)nc(-c2ccc(NC(=O)NC3CC3)cc2)n1	–

Further lines, the molecule ahead of its results:

Structure (SMILES)	logD [1]	further results
C[C@H]1COCCN1c1cc(C(C)(C)S(C)(=O)=O)nc(-c2ccc(NC(=S)NCCO)cc2)n1	2.15	–
C[C@H]1COCCN1c1cc(C2(S(C)(=O)=O)CC2)nc(-c2ccc(NC(=S)NCCO)cc2)n1	1.78	Papp B→A at 10 µM [2]: 17 ×10⁻⁶ cm/s; Papp A→B at 10 µM [3]: 0.07 ×10⁻⁶ cm/s
CNC(=O)Nc1ccc(-c2nc(N3CCOC[C@@H]3C)cc(C3(S(=O)(=O)c4ccncc4)CC3)n2)cc1	2.5	–
C[C@H]1COCCN1c1cc(C2(S(=O)(=O)c3ccccc3)CC2)nc(-c2ccc(NC(=O)NCCO)cc2)n1	2.8	Papp B→A at 10 µM [2]: 24 ×10⁻⁶ cm/s; Papp A→B at 10 µM [3]: 0.18 ×10⁻⁶ cm/s
C[C@H]1COCCN1c1cc(C2(S(C)(=O)=O)CCCC2)nc(-c2ccc(NC(=O)NC3CC3)cc2)n1	> 3.4	–
C[C@H]1COCCN1c1cc(C2(S(=O)(=O)C3CC3)CC2)nc(-c2ccc(NC(=S)NCCO)cc2)n1	2.1	Papp B→A at 10 µM [2]: 43 ×10⁻⁶ cm/s; Vd [5]: 2.3 L/kg; Papp A→B at 10 µM [3]: 5.6 ×10⁻⁶ cm/s; Vd [6]: 2 L/kg; half-life [7]: 0.9 h; clearance [8]: 8 mL/min/kg; clearance [9]: 16 mL/min/kg; bioavailability [10]: 61%; bioavailability [11]: 73%; half-life [12]: 1.9 h
CNC(=O)Nc1ccc(-c2nc(N3CCOC[C@@H]3C)cc(C(C)(C)S(C)(=O)=O)n2)cc1	–	hepatocyte CLint [4]: 36.3 µL/min/1e6 cells
C[C@H]1COCCN1c1cc(C2(S(C)(=O)=O)CCOCC2)nc(-c2ccc(NC(=O)NC3CC3)cc2)n1	2.8	–
C[C@H]1COCCN1c1cc(C2(S(C)(=O)=O)CCC2)nc(-c2ccc(NC(=O)NCCO)cc2)n1	2.4	–
C[C@H]1COCCN1c1cc(C2(S(=O)(=O)C3CC3)CC2)nc(-c2ccc(NC(=O)NCCO)cc2)n1	2.1	–
C[C@H]1COCCN1c1cc(C2(S(=O)(=O)c3ccccc3)CC2)nc(-c2ccc(NC(=O)NCCCO)cc2)n1	2.85	Papp B→A at 10 µM [2]: 31 ×10⁻⁶ cm/s; Papp A→B at 10 µM [3]: 0.15 ×10⁻⁶ cm/s
CNC(=O)c1cccc(-c2ccc3c(N4CCOC[C@@H]4C)nc(N4CCOC[C@@H]4C)nc3n2)c1 [VISTUSERTIB]	–	hepatocyte CLint [4]: < 4.2 µL/min/1e6 cells
C[C@H]1COCCN1c1cc(C2(S(=O)(=O)CCCO)CC2)nc(-c2ccc(NC(=O)NC3CC3)cc2)n1	2.4	–
C[C@H]1COCCN1c1cc(C2(S(=O)(=O)CCCO)CC2)nc(-c2ccc(NC(=S)NCCO)cc2)n1	1.6	–
C[C@H]1COCCN1c1cc(C2(S(=O)(=O)CCCO)CC2)nc(-c2ccc(NC(=S)NC3CC3)cc2)n1	2.2	Papp B→A at 10 µM [2]: 22 ×10⁻⁶ cm/s; Papp A→B at 10 µM [3]: 0.18 ×10⁻⁶ cm/s
C[C@H]1COCCN1c1cc(C2(S(=O)(=O)c3ccc(F)cc3)CC2)nc(-c2ccc(NC(=O)NCCO)cc2)n1	3.01	–
CS(=O)(=O)Cc1cc(N2CCOCC2)nc(-c2ccc(NC(=O)Nc3ccc(F)cc3)cc2)n1	> 3.2	–
C[C@H]1COCCN1c1cc(C2(S(=O)(=O)C3CC3)CC2)nc(-c2ccc(NC(=O)NC3CC3)cc2)n1	2.94	–
C[C@H]1COCCN1c1cc(C2(S(C)(=O)=O)CCC2)nc(-c2ccc(NC(=O)NC3CC3)cc2)n1	3.3	–
C[C@H]1COCCN1c1cc(C2(S(C)(=O)=O)CC2)nc(-c2ccc(NC(=O)NC3CC3)cc2)n1	2.62	hepatocyte CLint [4]: 37.8 µL/min/1e6 cells
